Assay results taken from ChEMBL document CHEMBL6071130, “A comprehensive review of small molecule drugs approved by the FDA in 2023: Advances and prospects” (Eur J Med Chem, 2024).

What was measured:
[1] = Half life in mouse; format: ADME, organism-based; conditions: in vivo
in vivo = conditions: mouse, po
Description: Oral bioavailability in mouse

Description for Gamma-secretase: Inhibition of Gamma-secretase (unknown origin)

Which IC50 (Gamma-secretase) does the source give for `C[C@H](NC(=O)Cc1cc(F)cc(F)c1)C(=O)N[C@H](C(=O)OC(C)(C)C)c1ccccc1` here?
The IC50 was 20 nM.

For `CCO[C@H]1CCN(Cc2c(OC)cc(C)c3[nH]ccc23)[C@H](c2ccc(C(=O)O)cc2)C1` [IPTACOPAN], which half-life [1] is on record?
Its half-life is 7 h.

And the bioavailability (in vivo)?
Its bioavailability is 60%.
